Here are results for nine compounds from US11759462B2, “Spirocyclic compounds as tryptophan hydroxylase inhibitors” (priority 2013, dated 2023).

One assay has as its target T1, Recombinant human TPH1 (MBP tagged) (Homo sapiens, UniProt P17752).
T1 construct: cloning full length human TPH1 cDNA in to a bacterial pMAL-c5E expression vector; made in house; host or cells: E. coli BL21 (DE3)
T1 sequence (P17752 1-444): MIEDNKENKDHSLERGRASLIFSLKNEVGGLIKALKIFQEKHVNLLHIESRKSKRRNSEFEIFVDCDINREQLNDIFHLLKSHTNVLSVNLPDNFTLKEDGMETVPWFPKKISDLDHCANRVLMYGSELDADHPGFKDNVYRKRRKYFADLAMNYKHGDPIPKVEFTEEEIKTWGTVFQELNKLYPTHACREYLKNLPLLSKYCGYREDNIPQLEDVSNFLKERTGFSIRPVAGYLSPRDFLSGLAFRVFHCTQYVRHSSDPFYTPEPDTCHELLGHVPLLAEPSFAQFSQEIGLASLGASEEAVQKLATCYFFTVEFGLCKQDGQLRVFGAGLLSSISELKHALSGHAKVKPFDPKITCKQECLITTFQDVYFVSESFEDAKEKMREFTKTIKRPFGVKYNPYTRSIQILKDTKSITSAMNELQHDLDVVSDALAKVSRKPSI
The assay can be described thus: TPH1 in vitro inhibition assay (kinetic fluorescence). It counts as biochemical. As to conditions: TPH1 Range (TPH1 inhibition IC50). An excerpt:
Recombinant human TPH1 (rTPH1 GenBank™ accession no. NP_004179) was expressed by cloning full length human TPH1 cDNA in to a bacterial pMAL-c5E expression vector to produce maltose-binding protein (MBP) TPH1 fusion proteins. E. coli BL21 (DE3) containing pMAL-c5E-TPH1 was used for protein generation and the recombinant protein was purified utilizing standard column chromatography techniques. The MBP tagged TPH1 (MBP-TPH1) was used directly to screen compounds as described below. Recombinant human TPH2 (rTPH2 GenBank™ accession no. 173353), PheOH (rPheOH GenBank™ accession no. K03020) and TH (rTH GenBank™ accession no. L20679) with an MBP tag were produced similarly.
TPH1 activities were measured in an assay containing 200 mM ammonium sulfate, 7 mM DTT, 50 μg/mL catalase, 25 μM ammonium iron sulfate, 50 mM MES, pH 7.1. Test compounds were diluted in 100% DMSO and added to the assay plate in 1 μL aliquots at 100× final concentration. Fifty microliters of assay buffer containing 30 nM TPH1 enzyme (MBP tagged) were added to the plate wells containing the test compound by the use of an Eppendorf repeater pipette. The reaction was initiated by the addition of 50 μL of assay buffer containing 60 μM tryptophan and 72 μM 6-6-methyltetra-hydropterin (2× final concentration) by the use of a Multidrop (LabSystems). Final reaction conditions were 15 nM TPH1 enzyme, 30 μM tryptophan, 36 μM 6-methyltetra-hydropterin, 200 mM ammonium sulfate, 7 mM DTT, […], 25 μM ferrous ammonium sulfate, 50 mM MES, pH 7.1, with atmospheric oxygen at room temperature. The plate was immediately placed onto an M5 plate reader (Molecular Devices) for kinetic fluorescence measurement using an excitation setting of 300 nm and an emission setting of 335 nm. Fluorescence reads are recorded in kinetic mode for 300 seconds (5 minutes).
Kinetic assay data for compounds at specific concentrations was translated into slopes using the Softmax Pro software on a Spectramax reader, and compound inhibition slopes were compared with wells containing enzyme, substrate and cofactor in the absence of inhibitor (100%), and wells containing substrate and cofactor in the absence of enzyme (0%). DMSO concentration in the assay was 1%. […] IC50's were determined using Graphpad Prism.
A word on the IC50: it is the concentration that inhibits the measured activity by half. `Cc1ccn(-c2cc(-c3ccc(Cl)c(Cl)c3)ccc2[C@@H](Oc2cc(N3CCC4(CC3)CN[C@H](C(=O)O)C4)nc(N)n2)C(F)(F)F)n1` [Example 1af, (S)-8-(2-amino-6-((R)-1-(3′,4′-dichloro-3-(3-methyl-1H-pyrazol-1-yl)-[1,1′-biphenyl]-4-yl)-2,2,2-trifluoroethoxy)pyrimidin-4-yl)-2,8-diazaspiro[4.5]decane-3-carboxylic acid]: the IC50 is < 50 nM.

The assay is the same for the next values; noted with them: read-out: TPH1 Range (TPH1 inhibition IC50).
As to `Cc1ccn(-c2cc(-c3ccc([S+](C)[O-])cc3)ccc2[C@@H](Oc2cc(N3CCC4(CC3)CN[C@H](C(=O)O)C4)nc(N)n2)C(F)(F)F)n1` (stereo partly drawn) [Example 1a, (3S)-8-(2-amino-6-((1R)-2,2,2-trifluoro-1-(3-(3-methyl-1H-pyrazol-1-yl)-4′-(methylsulfinyl)-[1,1′-biphenyl]-4-yl)ethoxy)pyrimidin-4-yl)-2,8-diazaspiro[4.5]decane-3-carboxylic acid], the IC50 was < 50 nM.
On to `Cc1ccn(-c2cc(-c3ccc(CN)cc3)ccc2[C@@H](Oc2cc(N3CCC4(CC3)CN[C@H](C(=O)O)C4)nc(N)n2)C(F)(F)F)n1` [Example 1ab, (S)-8-(2-amino-6-((R)-1-(4′-(aminomethyl)-3-(3-methyl-1H-pyrazol-1-yl)-[1,1′-biphenyl]-4-yl)-2,2,2-trifluoroethoxy)pyrimidin-4-yl)-2,8-diazaspiro[4.5]decane-3-carboxylic acid], for which the IC50 is < 50 nM.
For the compound `Cc1ccn(-c2cc(-c3cccc(F)c3)ccc2[C@@H](Oc2cc(N3CCC4(CC3)CN[C@H](C(=O)O)C4)nc(N)n2)C(F)(F)F)n1` [Example 1ac, (S)-8-(2-amino-6-((R)-2,2,2-trifluoro-1-(3′-fluoro-3-(3-methyl-1H-pyrazol-1-yl)-[1,1′-biphenyl]-4-yl)ethoxy)pyrimidin-4-yl)-2,8-diazaspiro[4.5]decane-3-carboxylic acid], the IC50 is < 50 nM.
Still for that read-out and setting: under `Cc1ccn(-c2cc(-c3ccc4ncccc4c3)ccc2[C@@H](Oc2cc(N3CCC4(CC3)CN[C@H](C(=O)O)C4)nc(N)n2)C(F)(F)F)n1` [Example 1ad, (S)-8-(2-amino-6-((R)-2,2,2-trifluoro-1-(2-(3-methyl-1H-pyrazol-1-yl)-4-(quinolin-6-yl)phenyl)ethoxy)pyrimidin-4-yl)-2,8-diazaspiro[4.5]decane-3-carboxylic acid] stands < 50 nM; under `Cc1ccc(-c2ccc([C@@H](Oc3cc(N4CCC5(CC4)CN[C@H](C(=O)O)C5)nc(N)n3)C(F)(F)F)c(-n3ccc(C)n3)c2)cc1` [Example 1ae, (S)-8-(2-amino-6-((R)-2,2,2-trifluoro-1-(4′-methyl-3-(3-methyl-1H-pyrazol-1-yl)-[1,1′-biphenyl]-4-yl)ethoxy)pyrimidin-4-yl)-2,8-diazaspiro[4.5]decane-3-carboxylic acid], < 50 nM.
Regarding `Cc1ccn(-c2cc(-c3ccc(F)c(F)c3)ccc2[C@@H](Oc2cc(N3CCC4(CC3)CN[C@H](C(=O)O)C4)nc(N)n2)C(F)(F)F)n1` [Example 1ag, (S)-8-(2-amino-6-((R)-1-(3′,4′-difluoro-3-(3-methyl-1H-pyrazol-1-yl)-[1,1′-biphenyl]-4-yl)-2,2,2-trifluoroethoxy)pyrimidin-4-yl)-2,8-diazaspiro[4.5]decane-3-carboxylic acid], the IC50 was < 50 nM.
Still for that read-out and setting: with `Cc1ccn(-c2cc(-c3ccc(Cl)cc3)ccc2[C@@H](Oc2cc(N3CCC4(CC3)CN[C@H](C(=O)O)C4)nc(N)n2)C(F)(F)F)n1` [Example 1ah, (S)-8-(2-amino-6-((R)-1-(4′-chloro-3-(3-methyl-1H-pyrazol-1-yl)-[1,1′-biphenyl]-4-yl)-2,2,2-trifluoroethoxy)pyrimidin-4-yl)-2,8-diazaspiro[4.5]decane-3-carboxylic acid] the figure was < 50 nM.
Take `Cc1ccn(-c2cc(-c3cncnc3)ccc2[C@@H](Oc2cc(N3CCC4(CC3)CN[C@H](C(=O)O)C4)nc(N)n2)C(F)(F)F)n1` [Example 1ai, (S)-8-(2-amino-6-((R)-2,2,2-trifluoro-1-(2-(3-methyl-1H-pyrazol-1-yl)-4-(pyrimidin-5-yl)phenyl)ethoxy)pyrimidin-4-yl)-2,8-diazaspiro[4.5]decane-3-carboxylic acid]: the IC50 is < 50 nM.
